The values that follow come from US20230227484A1, “PYRIMIDINE COMPOUND AS AXL INHIBITOR” (NANJING CHIA TAI TIANQING PHARMACEUTICAL CO., LTD., priority 2020, published 2023).

In test [1] the target is T1, AXL kinase (Homo sapiens, UniProt P30530).
T1 construct: purchased Carna 08-107
T1 sequence (P30530 473-894 limits assumed): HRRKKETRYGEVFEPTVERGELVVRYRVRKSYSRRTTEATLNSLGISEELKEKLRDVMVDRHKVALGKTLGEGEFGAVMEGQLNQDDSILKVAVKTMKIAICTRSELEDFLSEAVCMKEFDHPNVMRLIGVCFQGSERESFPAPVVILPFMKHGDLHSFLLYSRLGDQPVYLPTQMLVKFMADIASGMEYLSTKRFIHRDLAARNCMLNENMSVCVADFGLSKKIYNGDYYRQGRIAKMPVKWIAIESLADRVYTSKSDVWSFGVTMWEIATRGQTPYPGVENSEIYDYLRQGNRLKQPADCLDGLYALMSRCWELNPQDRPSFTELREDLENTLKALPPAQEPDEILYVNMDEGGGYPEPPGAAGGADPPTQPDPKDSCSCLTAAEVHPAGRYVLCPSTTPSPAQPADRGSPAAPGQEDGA
The test can be described thus: Inhibitory activity of compound against AXL kinase (HTRF KinEASE). As to conditions: AXL enzyme (Carna, 08-107), ATP 15 μM; "<" means below detection limit of the test. In kind it is biochemical. The gist of the method:
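AXL enzyme (final 0.016 ng/uL) was preincubated with compound (8 concentrations from 1 μM, ½ log steps) for 15 min at room temperature, then reacted with TK Substrate 3-biotin (final 1) and ATP (final 15 μM) for 45 min at 25° C. Phosphorylation was read by HTRF (TK antibody-cryptate, streptavidin-XL665, 1 h); IC50 from variable-slope dose-response fit.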
In general terms: In TR-FRET formats the signal depends on donor and acceptor labels being close together.

Test [2] relates to human acute monocytic leukemia cell MV-4-11 xenograft tumor. The test can be described thus: In-vivo efficacy of compound for MV4-11 xenograft tumor model of nude mouse. To be noted: MV4-11, po, once a day, end of experiment, MV-4-11 xenograft nude mice; for response vs control in vivo at 5 mg/kg/day / inhibition in vivo at 5 mg/kg/day: intragastric 5 mg/kg/d. How it is done: Inhibitory effects of a compound and a positive drug on the in-vivo tumor growth of a xenograft tumor model of a nude mouse on human acute monocytic leukemia cell MV-4-11 are tested.
MV-4-11 cells in a logarithmic growth phase are harvested, resuspended after cell counting, and adjusted in cell concentration to 7.0×10^7 cells/mL. The resuspended solution is injected into the right armpit of the nude mice subcutaneously. Each animal is inoculated with 200 μL (14×10^6 cells) of the suspended solution to establish a MV-4-11 xenograft tumor model. Afer the tumor volume reaches 100-300 mm^3, tumor-bearing mice in good health and similar tumor volume are selected.
The compound and the positive drug are vortexed with a suitable solvent and then ultrasonicated to completely dissolve the compound. Then, an appropriate volume of citric acid buffer is slowly added, and the mixed solution is vortexed to make the solution mixed uniformly to obtain administrative formulations having concentrations of 0.1, 0.5, and 1 mg-mL^−1.
Solvent control group: PEG400 & citric acid buffer (20:80, v:v).
The modeled mice are randomly divided into groups (n=6), and administrated with the relevant compounds and positive drugs on the day of grouping. After 21 days or after the tumor volume of the solvent control group reaches 2000 mm^3, the experiment is terminated (whichever reaches the index first), and the administration volume is 10 mL-kg^−1. Both the compound and the positive drug are administered by gavage, once a day. After the experiment starts, the tumor diameter and animal body weight are measured twice a week, and the tumor volume is calculated.
The tumor volume(TV) calculation formula is: tumor volume(mm^3)=l×w^2/2,
The calculation formula of relative tumor volume(RTV) is: RTV=TVt/TVinitial
The calculation formula of relative tumor proliferation rate (% T/C) is: % T/C=100%×(RTVT/RTVC)

The mark [3] stands for this setting: read-out: Relative tumor proliferation rate (% T/C).
Setting [4] is: read-out: Tumor growth inhibition rate (TGI %).

Take `CP(C)(=O)c1ccccc1Nc1nc(Nc2ccc3c(c2)CC[C@@H](N2CCCC2)CC3)ncc1Cl` [Example 10, (S)-(2-((5-chloro-2-((7-(pyrrolidin-1-yl)-6,7,8,9-tetrahydro-5H-benzo[7]annulen-2-yl)amino)pyrimidin-4-yl)amino)phenyl)dimethyl phosphine oxide]: 2.35 nM corresponded to half-maximal inhibition in test [1] (IC50). The response vs control in vivo at 5 mg/kg/day in test [2] (setting [3]) was determined as 3.7%. The inhibition in vivo at 5 mg/kg/day in test [2] (setting [4]) worked out at 106%.

As for `CP(C)(=O)c1c(Nc2nc(Nc3ccc4c(c3)CC[C@@H](N3CCCC3)CC4)ncc2Cl)ccc2nccnc12` [Example 47, (S)-(6-((5-chloro-2-((7-(pyrrolidin-1-yl)-6,7,8,9-tetrahydro-5H-benzo[7]annulen-2-yl)amino)pyrimidin-4-yl)amino)quinoxalin-5-yl)dimethyl phosphine oxide], the IC50 (commonly the concentration that gives 50% inhibition) in test [1] was found to be 1.72 nM. The response vs control in vivo at 5 mg/kg/day in test [2] (setting [3]) is 15%. Moreover, the inhibition in vivo at 5 mg/kg/day in test [2] (setting [4]) turned out to be 94%.

For the compound `Cc1ccc(Nc2nc(Nc3ccc4c(c3)CC[C@@H](N3CCCC3)CC4)ncc2Cl)c(P(C)(C)=O)c1` [Example 53, (S)-(2-((5-chloro-2-((7-(pyrrolidin-1-yl)-6,7,8,9-tetrahydro-5H-benzo[7]annulen-2-yl)amino)pyrimidin-4-yl)amino)-5-methylphenyl) dimethyl phosphine oxide], inhibition in test [1] was half-maximal at 1.86 nM (IC50). For the same compound, the response vs control in vivo at 5 mg/kg/day in test [2] (setting [3]) stood at 31%. The inhibition in vivo at 5 mg/kg/day in test [2] (setting [4]) was determined as 79%.

Compound `CNC(=O)c1cc(F)ccc1Nc1nc(Nc2ccc3c(c2)CC[C@@H](N2CCCC2)CC3)ncc1Cl` [Example 19, (S)-2-((5-chloro-2-((7-(pyrrolidin-1-yl)-6,7,8,9-tetrahydro-5H-benzo[7]annulen-2-yl)amino)pyrimidin-4-yl)amino)-5-fluoro-N-methylhenzamide] returned an IC50 in test [1] of 0.11 nM. In addition, in test [2] (intragastric 1 mg/kg/d, read-out: Relative tumor proliferation rate (% T/C)), the response vs control in vivo at 1 mg/kg/day came to 28%. Further, the inhibition in vivo at 1 mg/kg/day in test [2] (intragastric 1 mg/kg/d, read-out: Tumor growth inhibition rate (TGI %)) is 78%.

On to `COCc1ccc(Nc2nc(Nc3ccc4c(c3)CC[C@@H](N3CCCC3)CC4)ncc2Cl)c(P(C)(C)=O)c1` [Example 115, (S)-(2-((5-chloro-2-((7-(pyrrolidin-1-yl)-6,7,8,9-tetrahydro-5H-benzo[7]annulen-2-yl)amino)pyrimidin-4-yl)amino)-5-(methoxymethyl)phenyl)dimethylphosphine oxide], for which inhibition in test [1] was half-maximal at 4.89 nM (IC50). For the same compound, the response vs control in vivo at 5 mg/kg/day in test [2] (setting [3]) was 23%. In addition, the inhibition in vivo at 5 mg/kg/day in test [2] (setting [4]) stood at 85%.
